Results published in PMC8745601 (International Journal of Molecular Sciences, 2021).
Like-named read-outs stand apart in the source and are kept apart here.

Assays:
[1] = tested on: breast cancer cell lines MCF-7, MDA-MB-231, ZR-75-1; test: Resazurin cell viability assay in breast cancer cell lines; conditions: 100 µmol/L doxorubicin, 72 h, versus DMSO
Experimental: Resazurin-Assay: To determine cell viability, cells were seeded at a density of 10,000 cells/well in 96-well multiplates. […] Afterward, 100 µL from each well was placed in a cavity of a 96-well plate, and the fluorescence was determined on a microplate reader (TECAN infinite M200, Tecan GmbH, Crailsheim, Germany) at an excitation wavelength of 530 nm and an emission wavelength of 590 nm.

OATP1A2*2/*3 = test: Doxorubicin uptake clearance by OATP1A2 genetic variants versus wild type; type: cell-based, human; conditions: OATP1A2*2 and *3 versus OATP1A2*1
Experimental: (§1) Cellular uptake studies: For all transport studies, cells were seeded in 24-well plates and incubated in a full growth medium at an initial density of 200,000 cells/well for 3 days. Before starting each transport experiment, cells were washed with a pre-warmed (37 °C) incubation buffer [64]. […] Protein concentration of whole cell lysate was determined to quantify cell density after each experiment using the BCA assay according to the manufacturer’s instructions (Pierce, Rockford, IL, USA).
(§2) Protein abundance of OATP1A2*1–*3 and OCT1–3 were measured by mass spectrometry-based targeted proteomics using a validated LC-MS/MS method as recently described [65].
Statistical evaluation: All experiments were performed at least three times unless otherwise noted. The OATP1A2*1–*3 and OCT1-3 net uptake was obtained by subtracting the uptake into wild-type cells from that of the transporter-transfected cells. Km and Vmax were assessed using Prism 5.01 (GraphPad Software, San Diego, CA, USA). […] Km and Vmax are presented as arithmetic means ± standard deviation.

OCT1 [2] = target: T1, OCT1 (Homo sapiens, UniProt O15245); conditions: MDCKII-OCT1; doxorubicin 0–100 µmol/L; 3 min; mean ± SD
T1 sequence (O15245 1-554): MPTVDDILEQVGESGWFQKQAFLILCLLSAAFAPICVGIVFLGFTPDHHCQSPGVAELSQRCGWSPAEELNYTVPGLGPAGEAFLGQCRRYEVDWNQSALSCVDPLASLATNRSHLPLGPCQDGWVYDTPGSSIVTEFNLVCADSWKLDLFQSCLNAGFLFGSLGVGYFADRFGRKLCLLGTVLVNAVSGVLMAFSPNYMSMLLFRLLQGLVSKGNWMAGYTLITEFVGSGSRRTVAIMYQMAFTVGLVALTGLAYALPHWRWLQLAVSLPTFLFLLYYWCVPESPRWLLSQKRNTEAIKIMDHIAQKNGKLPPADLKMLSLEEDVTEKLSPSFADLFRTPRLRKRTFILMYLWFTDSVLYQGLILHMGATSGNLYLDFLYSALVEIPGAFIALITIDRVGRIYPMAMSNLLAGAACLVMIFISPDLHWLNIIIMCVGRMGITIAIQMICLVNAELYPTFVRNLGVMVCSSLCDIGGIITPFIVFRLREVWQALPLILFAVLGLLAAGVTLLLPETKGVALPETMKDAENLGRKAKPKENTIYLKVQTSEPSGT
Experimental: as §1
(§3) Statistical evaluation: All experiments were performed at least three times unless otherwise noted. The OATP1A2*1–*3 and OCT1-3 net uptake was obtained by subtracting the uptake into wild-type cells from that of the transporter-transfected cells. Km and Vmax were assessed using Prism 5.01 (GraphPad Software, San Diego, CA, USA). The differences in the doxorubcin uptake in OATP1A2*1–*3 and in OCT1-3 transfected cells were adjusted to the membranous transporter protein levels in the whole cell lysate. Km and Vmax are presented as arithmetic means ± standard deviation.

[3] = during chemotherapy, no reference given, cited from earlier work
OATP1A2*3 = target: T2, OATP1A2*3 (Homo sapiens, UniProt P46721, E172D); test: in vitro
T2 sequence (P46721 1-670 E172D): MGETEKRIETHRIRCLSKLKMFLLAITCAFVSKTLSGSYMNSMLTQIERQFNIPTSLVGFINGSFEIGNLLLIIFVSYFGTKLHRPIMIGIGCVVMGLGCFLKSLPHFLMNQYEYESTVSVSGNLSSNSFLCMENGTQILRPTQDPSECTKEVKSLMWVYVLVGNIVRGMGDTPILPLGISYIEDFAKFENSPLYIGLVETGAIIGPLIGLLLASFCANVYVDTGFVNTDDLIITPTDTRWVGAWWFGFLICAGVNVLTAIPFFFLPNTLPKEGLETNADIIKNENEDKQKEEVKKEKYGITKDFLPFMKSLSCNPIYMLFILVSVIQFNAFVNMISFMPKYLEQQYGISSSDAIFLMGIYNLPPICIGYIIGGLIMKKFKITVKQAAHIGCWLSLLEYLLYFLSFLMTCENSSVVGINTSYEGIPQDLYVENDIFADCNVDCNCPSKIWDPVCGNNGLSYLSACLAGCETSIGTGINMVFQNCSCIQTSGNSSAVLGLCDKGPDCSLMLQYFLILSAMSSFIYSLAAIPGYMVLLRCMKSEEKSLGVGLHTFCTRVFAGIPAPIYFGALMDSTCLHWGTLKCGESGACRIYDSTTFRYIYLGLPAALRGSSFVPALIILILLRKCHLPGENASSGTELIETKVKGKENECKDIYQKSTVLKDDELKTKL
Experimental: as §1, §2
200 μL of each cell lysate sample was mixed with 25 μL internal standard (5 µg/mL daunorubicin), 25 μL citric acid (1%), and 400 μL ice-cold acetonitrile for protein precipitation. […] The clear supernatant was transferred to HPLC vials. The measurement and quantitative evaluation were carried out using the LC-MS/MS system QTRAP 4000® (AB SCIEX, Darmstadt, Germany) and the Software Analyst® 1.4 (Applied Biosystems, Darmstadt, Germany).
Statistical evaluation: All experiments were performed at least three times unless otherwise noted. The OATP1A2*1–*3 and OCT1-3 net uptake was obtained by subtracting the uptake into wild-type cells from that of the transporter-transfected cells. […]

OCT1 [4] = target: T1, OCT1; test: in vitro; conditions: mdck
Experimental: as §1, §3

OCT2 = target: T3, OCT2 (Homo sapiens, UniProt O15244); test: in vitro; conditions: mdck
T3 sequence (O15244 1-555): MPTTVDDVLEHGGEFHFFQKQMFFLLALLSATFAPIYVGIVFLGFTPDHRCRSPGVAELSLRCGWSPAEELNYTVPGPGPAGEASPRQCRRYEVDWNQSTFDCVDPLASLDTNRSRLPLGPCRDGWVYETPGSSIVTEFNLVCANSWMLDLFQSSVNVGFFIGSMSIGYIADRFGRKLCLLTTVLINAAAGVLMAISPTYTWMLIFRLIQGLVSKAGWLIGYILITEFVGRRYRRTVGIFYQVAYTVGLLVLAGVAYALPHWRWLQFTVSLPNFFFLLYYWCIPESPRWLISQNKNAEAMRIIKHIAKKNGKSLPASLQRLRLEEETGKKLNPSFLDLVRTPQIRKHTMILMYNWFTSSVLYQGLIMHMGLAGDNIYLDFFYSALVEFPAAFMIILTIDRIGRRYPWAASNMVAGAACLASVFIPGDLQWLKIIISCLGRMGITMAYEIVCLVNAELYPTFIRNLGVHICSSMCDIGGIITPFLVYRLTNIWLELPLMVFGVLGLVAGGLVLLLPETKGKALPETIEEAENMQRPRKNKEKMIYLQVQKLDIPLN
Experimental: as §1, §3

OATP1A2 = conditions: transiently transfected HeLa cells, ref 22 (Lee et al.); cited from earlier work
OCT1 [5] = target: T1, OCT1; conditions: OCT1 affinity to doxorubicin; cited from earlier work
OCT6 = OCT6 affinity to doxorubicin; cited from earlier work

COc1cccc2c1C(=O)c1c(O)c3c(c(O)c1C2=O)C[C@@](O)(C(=O)CO)C[C@@H]3O[C@H]1C[C@H](N)[C@H](O)[C@H](C)O1 [doxorubicin, Doxorubicin]
cell viability in presence of doxorubicin [1]: significantly reduced
diminished cellular uptake clearance by the genetic variants (OATP1A2*2/*3): 51–70%
Vmax (OCT1 [2]): 19.4 ± 3.78 pmol/mg/min
plasma concentrations of doxorubicin ([3]; conversion of 600 ng/mL): ~ 1 µmol/L
plasma concentrations of doxorubicin [3]: up to 600 ng/mL
Km (OATP1A2*3; HEK293 cells stably expressing OATP1A2*3): 5.94 ± 3.07 µM
microsomal CLint (OATP1A2*3; other cell line): 2.32 ± 0.99 µL/min/mg
microsomal CLint at 3 min (OCT1 [4]): 4.16 ± 1.1 µL/min/mg
microsomal CLint at 3 min (OCT2): 0.5 ± 0.26 µL/min/mg
Km (OATP1A2): 31.7 µM
Km (OCT1 [5]): ~5 µM
Km (OCT6): ~5 µM
